Laboratory results as given in patent publication US7091352B2, “Compounds substituted with bicyclic amino groups” (priority 2001, dated 2006).
Where two headings read alike, the source gives them in different places.

Legend:
TNFα production = test: Inhibition of the production of TNFα in vitro in human whole blood (LPS stimulation, ELISA); format: cell-based; settings: read-out: Inhibitory Effect on TNFα Production IC50
Method: (§1) This test was performed according to the method of Hartman, et al. [D. A. Hartman, S. J. Ochalski and R. P. Carlson; The effects of anti-inflammatory and antiallergic drugs on cytokine release after stimulation of human whole blood by lipopolysaccharide and zymosan A: Inflamm. Res., 44, 269 (1995)].
(§2) Peripheral blood samples were collected in the presence of heparin from healthy adult volunteers. 1000 μl of whole blood were added to an Eppendorf tube to which 2 μl of a dimethyl sulfoxide solution of the test compound had been added in advance, after which 10 μl of lipopolysaccharide (E. coli 026: B6 origin, Difco) were added as a stimulant (final concentration of said lipopolysaccharide: 10 μg/ml). This was mixed well and then incubated for 6 hours at 37° C. in the presence of 5% CO2. At the end of the incubation, the mixture was cooled to 4° C. to stop the reaction, followed immediately by centrifuging for 5 minutes at 14,000 rpm to separate and collect the supernatant plasma. The IL-1β and TNFα produced and released into the plasma were measured using commercially available enzyme immunoassay (ELISA) kits [Cayman (IL-1β) and Genzyme (TNFα)]. […] The inhibitory effect [IC50 (μM)] on the production of IL-1β and TNFα was determined by the method of least squares from the amounts of the cytokines produced in the presence and absence of the test compound.

IL-1β production = test: Inhibition of the production of IL-1β in vitro in human whole blood (LPS stimulation, ELISA); format: cell-based; settings: lipopolysaccharide 10 μg/ml, 6 hours at 37° C., plasma ELISA, read-out: Inhibitory Effect on IL-1β Production IC50
Method: as §1, §2

SMILES | IC50 (TNFα production; Homo sapiens, 6 h) [nM] | IC50 (TNFα production; human whole blood, lipopolysaccharide 10 μg/ml, 6 hours at 37° C., plasma ELISA) [nM] | IC50 (IL-1β production) [nM]
CC1C[C@H]2C=C(c3n[nH]c(-c4ccc(F)cc4)c3-c3ccncc3)CCN2C1 (stereo partly drawn) [Example 12, 5-(4-Fluorophenyl)-3-[(8aS)-2-methyl-1,2,3,5,6,8a-hexahydroindolizin-7-yl]-4-(pyridin-4-yl)pyrazole] | 2.6 |  | 
OC1(c2n[nH]c(-c3ccc(F)cc3)c2-c2ccncc2)CCN2CCCC2C1 (racemic) [Example 2, (±)-5-(4-Fluorophenyl)-3-(7-hydroxy-1,2,3,5,6,7,8,8a-octahydroindolizin-7-yl)-4-(pyridin-4-yl)pyrazole] |  | 70 | 35
